Results reported in BindingDB's records for doi:10.1021/jm990309x (University of New Mexico, 1999).

Biological target: Bile salt-activated lipase (Sus scrofa)
Assay: Inhibition of the Pancreatic Cholesterol Esterase from porcine

Ki [nM]	Compound
25	O=c1oc(Cl)ccc1CCC1CCCCC1 [6-Chloro-3-(2-cyclohexyl-ethyl)-pyran-2-one]
60	O=c1oc(Cl)ccc1CCCC1CCCCC1 [6-Chloro-3-(3-cyclohexyl-propyl)-pyran-2-one]
2200	O=c1oc(Cl)ccc1CC1CCCCC1 [6-Chloro-3-cyclohexylmethyl-pyran-2-one]
